In ChEMBL document CHEMBL1134115, “Antimycobacterial activity of 9-sulfonylated/sulfenylated-6-mercaptopurine derivatives” (Bioorg Med Chem Lett, 2001):
Converted amounts (≈) assume the structure as drawn.

Key:
[1] = system: Mycobacterium tuberculosis; assay: Antimycobacterial activity against Mycobacterium tuberculosis H37Rv using Microplate Alamar Blue Assay (MABA) assay; assay type: functional
[2] = system: Mycobacterium avium; assay: Percent inhibition against Mycobacterium avium at the dose of 12.5 uM using Microplate Alamar Blue Assay (MABA) assay; assay type: functional
[3] = system: Vero; assay: Cytotoxicity determined in VERO cells at concentrations less than or equal to […] or 10 times the MIC against Mycobacterium tuberculosis H37Rv.; assay type: functional, cell-based; settings: Chlorocebus sabaeus
[4] = Selectivity index (IC50/MIC) was determined; assay type: functional
[5] = system: Mycobacterium tuberculosis; assay: Antimycobacterial activity against Mycobacterium tuberculosis wild type (WT, H37Rv); assay type: functional
[6] = system: Mycobacterium tuberculosis; assay: Antimycobacterial activity against Mycobacterium tuberculosis Erdman using Microplate Alamar Blue Assay (MABA) assay; assay type: functional

Work on `O=S(=O)(c1ccc(Br)cc1)n1cnc2c(S)ncnc21` yielded an MIC [1] of 0.78 µg/mL (≈ 2.1 µM), an inhibition at 12.5 µM [2] of 81% and an IC50 [3] of 2 µg/mL (≈ 5.39 µM). For the same molecule, the Selectivity index [4] was 2.6 SI.
Work on `O=S(=O)(c1ccc(F)cc1)n1cnc2c(S)ncnc21` yielded an MIC [1] of 3.39 µg/mL (≈ 10.9 µM), an inhibition at 12.5 µM [2] of 70% and an IC50 [3] of 1 µg/mL (≈ 3.22 µM). For the same molecule, the Selectivity index [4] was 0.3 SI.
For `CC(=O)Nc1ccc(S(=O)(=O)n2cnc3c(S)ncnc32)cc1`, the MIC [1] was 0.78 µg/mL (≈ 2.23 µM), the inhibition at 12.5 µM [2] was 57% and the IC50 [3] was over 200 µg/mL. The MIC [5] was 0.78 µg/mL (≈ 2.23 µM) and the Selectivity index [4] was over 256 SI.
For `O=[N+]([O-])c1ccccc1Sn1cnc2c(S)ncnc21`, the MIC [1] was 0.78 µg/mL (≈ 2.55 µM), the inhibition at 12.5 µM [2] was 75% and the IC50 [3] was 5 µg/mL (≈ 16.4 µM). The Selectivity index [4] was 6.4 SI.
`O=S(=O)(c1ccc(Cl)cc1)n1cnc2c(S)ncnc21` showed an MIC [1] of 3.13 µg/mL (≈ 9.58 µM), an inhibition at 12.5 µM [2] of 60% and an IC50 [3] of 1 µg/mL (≈ 3.06 µM). The MIC [5] was 3.13 µg/mL (≈ 9.58 µM) and the Selectivity index [4] was 0.32 SI.
For `Nc1cccc(S(=O)(=O)n2cnc3c(S)ncnc32)c1`, the MIC [1] was 3.13 µg/mL (≈ 10.2 µM), the inhibition at 12.5 µM [2] was 68% and the IC50 [3] was 468 µg/mL (≈ 1520 µM). For the same molecule, the MIC [5] was 3.13 µg/mL (≈ 10.2 µM) and the Selectivity index [4] was 150 SI.
With `CN(C)S(=O)(=O)n1cnc2c(=S)[nH]cnc21` the MIC [1] was 0.39 µg/mL (≈ 1.5 µM), the inhibition at 12.5 µM [2] was 40% and the IC50 [3] was over 200 µg/mL. The MIC [5] was 0.39 µg/mL (≈ 1.5 µM) and the Selectivity index [4] was over 513 SI.
`Cc1ccc(S(=O)(=O)n2cnc3c(S)ncnc32)cc1` gave an MIC [1] of 1.6 µg/mL (≈ 5.22 µM), an inhibition at 12.5 µM [2] of 73% and an IC50 [3] of 4 µg/mL (≈ 13.1 µM). It also gave a Selectivity index [4] of 2.5 SI.
`Nc1ccc(S(=O)(=O)n2cnc3c(S)ncnc32)cc1` showed an MIC [1] of 0.78 µg/mL (≈ 2.54 µM), an inhibition at 12.5 µM [2] of 63% and an IC50 [3] of over 100 µg/mL. The Selectivity index [4] was over 128 SI.
With `CO[C@H]1/C=C/O[C@@]2(C)Oc3c(C)c(O)c4c(O)c(c(/C=N/N5CCN(C)CC5)c(O)c4c3C2=O)NC(=O)/C(C)=C\C=C\[C@H](C)[C@H](O)[C@@H](C)[C@@H](O)[C@@H](C)[C@H](OC(C)=O)[C@@H]1C` [RIFAMPIN] the MIC [1] was 0.125 µg/mL (≈ 0.152 µM), the IC50 [3] was over 1000 µg/mL and the MIC [5] was 0.125 µg/mL (≈ 0.152 µM). The Selectivity index [4] was over 8000 SI.
`O=[N+]([O-])c1ccc(Sn2cnc3c(S)ncnc32)cc1` showed an inhibition at 12.5 µM [2] of 79%, an IC50 [3] of 45 µg/mL (≈ 147 µM) and an MIC [6] of 0.78 µg/mL (≈ 2.55 µM). For the same molecule, the MIC [5] was 0.78 µg/mL (≈ 2.55 µM) and the Selectivity index [4] was 58 SI.
Molecule `O=[N+]([O-])c1ccccc1S(=O)(=O)n1cnc2c(S)ncnc21` has an MIC [1] of 1.56 µg/mL (≈ 4.62 µM), an inhibition at 12.5 µM [2] of 50% and an IC50 [3] of 64 µg/mL (≈ 190 µM). For the same molecule, the Selectivity index [4] was 40 SI.
